Assay results: US11702409B2, “Pyrazolyl derivatives useful as anti-cancer agents” (NOVARTIS AG, priority 2019, dated 2023)

Molecular target: KRasG12C (M1-K169, biotinylated on the N-terminus) (Homo sapiens (Human), UniProt P01116, G12C)
Experiment: Covalent competition assay (scintillation proximity assay, competition with radiolabeled covalent probe Compound B)
Assay type: binding
Conditions: in vitro KRASG12C activity; 10 nM KRasG12C:GDP, 25 nM radio-ligand and 475 nM unlabelled ligand, incubated 2 hours; read-out: Covalent Competition Assay IC50
Method: The cells were lysed by 4 passages through an Avestin Emulsiflex at about 20000 psi and insoluble debris removed by centrifugation and filtered through a 0.45 μm Durapore membrane (Millipore). […] The protein in the flow through was subjected to a final polishing step on a HiLoad 16/60 Superdex 200 prep grade size-exclusion column pre-equilibrated with SEC-buffer (20 mM HEPES pH 7.4, 150 mM NaCl, 5 mM MgCl2, 1 μM GDP).
A scintillation proximity assay (SPA) was used to determine the potency of the compounds. This assay measures the ability of the test compound to compete with the radiolabeled covalent probe for binding to and covalently modify KRASG12C.
A serial dilution of the compounds to be tested is mixed with a fixed concentration of the radiolabeled covalent probe before incubation with KRASG12C:GDP as described below.
The reaction was started by addition of KRasG12C (M1-K169, biotinylated on the N-terminus) to the compounds and incubated for 2 hours with continuous agitation allowing for full modification of KRasG12C with probe or test compounds. […] The assay buffer contained 20 mM Tris-HCl pH 7.5 (Invitrogen), 150 mM NaCl (Sigma Aldrich), 0.1 mM MgCl2 (Sigma Aldrich), and 0.01% Tween-20 (Sigma Aldrich).
Evaluation was carried out using assay data analysis software (such as the standard Novartis in-house Helios software application, Novartis Institutes for BioMedical Research, unpublished) using the methods described in Formenko et al., Robust Regression for high-throughput screening.
Evaluation can also be carried out using commercially available software which is designed to derive IC50 values using 4-parameter fits (e.g. GraphPad Prism, XL fit).

Compound	IC50
C=CC(=O)N1CC2(CC(n3nc(-c4cccnc4)c(-c4c(Cl)c(C)cc5[nH]ncc45)c3C(F)F)C2)C1 (single isomer, unassigned) [Example 87b]	> 50000 nM
C=CC(=O)N1CC2(CC(n3nc(-c4ccccc4)c(-c4c(Cl)c(C)cc5[nH]nc(N)c45)c3C)C2)C1 (single isomer, unassigned) [Example 70b, 1-(6-(4-(3-amino-5-chloro-6-methyl-1H-indazol-4-yl)-5-methyl-3-phenyl-1H-pyrazol-1-yl)-2-azaspiro[3.3]heptan-2-yl)prop-2-en-1-one]	2100 nM
C=CC(=O)N1CC2(CC(n3nc(-c4cnc5c(cnn5C)c4)c(-c4c(Cl)c(C)cc5[nH]ncc45)c3C)C2)C1 (single isomer, unassigned) [Example 37b]	> 50000 nM
C=CC(=O)N1CC2(CC(n3nc(-c4ccc(COCCOC)cc4)c(-c4c(Cl)c(C)cc5[nH]ncc45)c3C)C2)C1 (single isomer, unassigned) [Example 39b]	> 5000 nM
C=CC(=O)N1CC2(CC(n3nc(-c4ccc(-n5ccc(N)n5)nc4)c(-c4c(Cl)c(C)cc5[nH]ncc45)c3C)C2)C1 [Example 53, 1-(6-(3-(6-(3-amino-1H-pyrazol-1-yl)pyridin-3-yl)-4-(5-chloro-6-methyl-1H-indazol-4-yl)-5-methyl-1H-pyrazol-1-yl)-2-azaspiro[3.3]heptan-2-yl)prop-2-en-1-one]	320 nM
C=CC(=O)N1CC2(CC(n3nc(-c4cccc5c4cnn5C)c(-c4c(Cl)c(C)cc5[nH]ncc45)c3C)C2)C1 (single isomer, unassigned) [Example 29b]	15000 nM
C=CC(=O)N1CC2(CC(n3nc(-c4ccc5ncnn5c4)c(-c4c(Cl)c(C)cc5[nH]ncc45)c3C)C2)C1 (single isomer, unassigned) [Example 23a]	564 nM
C=CC(=O)N1CC2(CC(n3nc(-c4ccc(CN5CCCS5(=O)=O)cc4)c(-c4c(Cl)c(C)cc5[nH]ncc45)c3C)C2)C1 (single isomer, unassigned) [Example 5b]	15000 nM
C=CC(=O)N1CC2(CC(n3nc(-c4ccc5nn(CCN6CC[C@H](F)C6)cc5c4)c(-c4c(Cl)c(C)cc5[nH]ncc45)c3C)C2)C1 (single isomer, unassigned) [Example 80b]	8 nM
C=CC(=O)N1CC2(CC(n3nc(-c4ccc(CO)cc4)c(-c4c(Cl)c(C)cc5[nH]ncc45)c3C)C2)C1 (single isomer, unassigned) [Example 47b, 1-(6-(4-(5-chloro-6-methyl-1H-indazol-4-yl)-3-(4-(hydroxymethyl)phenyl)-5-methyl-1H-pyrazol-1-yl)-2-azaspiro[3.3]heptan-2-yl)prop-2-en-1-one]	23400 nM
C=CC(=O)N1CC2(CC(n3nc(-c4ccc5c(c4)CCN5CCOC)c(-c4c(Cl)c(C)cc5[nH]ncc45)c3C)C2)C1 (single isomer, unassigned) [Example 44a]	19 nM
C=CC(=O)N1CC2(CC(n3nc(-c4ccncc4C)c(-c4c(Cl)c(C)cc5[nH]ncc45)c3C)C2)C1 (single isomer, unassigned) [Example 49a, 1-(6-(4-(5-chloro-6-methyl-1H-indazol-4-yl)-5-methyl-3-(3-methylpyridin-4-yl)-1H-pyrazol-1-yl)-2-azaspiro[3.3]heptan-2-yl)prop-2-en-1-one]	227 nM
C=CC(=O)N1CC2(CC(n3nc(-c4cccc(=O)n4C)c(-c4c(Cl)ccc5[nH]ncc45)c3C)C2)C1 (single isomer, unassigned) [Example 91b]	25300 nM
C=CC(=O)N1CC2(CC(n3nc(-c4ccc5c(cnn5C)c4)c(-c4cc(O)ccc4Cl)c3C)C2)C1 [Example 94, 1-(6-(4-(2-chloro-5-hydroxyphenyl)-5-methyl-3-(1-methyl-1H-indazol-5-yl)-1H-pyrazol-1-yl)-2-azaspiro[3.3]heptan-2-yl)prop-2-en-1-one]	2300 nM
C=CC(=O)N1CC2(CC(n3nc(C4=CN5CC(C)(C)N=C5C(F)=C4)c(-c4c(Cl)c(C)cc5[nH]ncc45)c3C)C2)C1 (single isomer, unassigned) [Example 73a]	5310 nM
C=CC(=O)N1CC2(CC(n3nc(-c4ccc(N5CCN(C)C5=O)cc4)c(-c4c(Cl)c(C)cc5[nH]ncc45)c3C)C2)C1 (single isomer, unassigned) [Example 13a]	18 nM

Compound	IC50
C=CC(=O)N1CC2(CC(n3nc(-c4ccc5nn(CCN6CC(OC)C6)cc5c4)c(-c4c(Cl)c(C)cc5[nH]ncc45)c3C)C2)C1 (single isomer, unassigned) [Example 82a]	12 nM
C=CC(=O)N1CC2(CC(n3nc(-c4ccn5ccnc5c4)c(-c4c(Cl)c(C)cc5[nH]ncc45)c3C)C2)C1 (single isomer, unassigned) [Example 33b]	> 50000 nM
C=CC(=O)N1CC2(CC(n3nc(-c4ccc(N)nc4)c(-c4c(Cl)c(C)cc5[nH]ncc45)c3C)C2)C1 [Example 79a, 1-(6-(3-(6-aminopyridin-3-yl)-4-(5-chloro-6-methyl-1H-indazol-4-yl)-5-methyl-1H-pyrazol-1-yl)-2-azaspiro[3.3]heptan-2-yl)prop-2-en-1-one]	92 nM
C=CC(=O)N1CC2(CC(n3nc(-c4ccc(OCCOC)cc4F)c(-c4c(Cl)c(C)cc5[nH]ncc45)c3C)C2)C1 (single isomer, unassigned) [Example 60a, 1-(6-{(4M)-4-(5-Chloro-6-methyl-1H-indazol-4-yl)-3-[2-fluoro-4-(2-methoxyethoxy)phenyl]-5-methyl-1H-pryazol-1-yl}-2-azaspiro[3.3]heptan-2-yl)prop2-en-1-one]	51 nM
C=CC(=O)N1CC2(CC(n3nc(-c4ccc5c(c4)CC(=O)N5C)c(-c4c(Cl)c(C)cc5[nH]ncc45)c3C)C2)C1 (single isomer, unassigned) [Example 24a]	71 nM
C=CC(=O)N1CC2(CC(n3nc(-c4ccc5nn(CCOC)cc5c4)c(-c4c(Cl)c(C)cc5[nH]ncc45)c3C)C2)C1 (single isomer, unassigned) [Example 41b]	941 nM
C=CC(=O)N1CC2(CC(n3nc(-c4ccc5nc(NC)ncc5c4)c(-c4c(Cl)c(C)cc5[nH]ncc45)c3C)C2)C1 (single isomer, unassigned) [Example 40a]	99 nM
C=CC(=O)N1CC2(CC(n3nc(-c4ccc5nn(CCOC)cc5c4)c(-c4c(Cl)c(C)cc5[nH]ncc45)c3C)C2)C1 (single isomer, unassigned) [Example 41a, 1-(6-{(4M)-4-(5-Chloro-6-methyl-1H-indazol-4-yl)-3-[2-(2-methoxyethyl)-2H-indazol-5-yl]-5-methyl-1H-pyrazol-1-yl}-2-azaspiro[3.3]heptan-2-yl)prop-2-en-1-one]	11 nM
C=CC(=O)N1CC2(CC(n3nc(-c4ccc(C(=O)NCCOC)cc4)c(-c4c(Cl)c(C)cc5[nH]ncc45)c3C)C2)C1 (single isomer, unassigned) [Example 62b, 4-(1-(2-acryloyl-2-azaspiro[3.3]heptan-6-yl)-4-(5-chloro-6-methyl-1H-indazol-4-yl)-5-methyl-1H-pyrazol-3-yl)-N-(2-methoxyethyl)benzamide]	19300 nM
C=CC(=O)N1CC2(CC(n3nc(-c4cccnc4)c(-c4c(Cl)c(C)cc5[nH]ncc45)c3C)C2)C1 (single isomer, unassigned) [Example 27a]	251 nM
C=CC(=O)N1CC2(CC(n3nc(-c4ccc(C(=O)N(C)CC(C)(C)O)cc4)c(-c4c(Cl)c(C)cc5[nH]ncc45)c3C)C2)C1 (single isomer, unassigned) [Example 67b]	12100 nM
C=CC(=O)N1CC2(CC(n3nc(-c4ccc5c(cnn5CCN5CCOCC5)c4)c(-c4c(Cl)c(C)cc5[nH]ncc45)c3C)C2)C1 (single isomer, unassigned) [Example 17a]	13 nM
C=CC(=O)N1CC2(CC(n3nc(-c4ccc5nn(CCN6CC(OC)C6)cc5c4)c(-c4c(Cl)c(C)cc5[nH]ncc45)c3C)C2)C1 (single isomer, unassigned) [Example 82b]	712 nM
C=CC(=O)N1CC2(CC(n3nc(-c4ccc5c(c4)N(C)CCO5)c(-c4c(Cl)c(C)cc5[nH]ncc45)c3C)C2)C1 (single isomer, unassigned) [Example 31b]	374 nM
C=CC(=O)N1CC2(CC(n3nc(-c4ccc(NCCOC)cc4F)c(-c4c(Cl)c(C)cc5[nH]ncc45)c3C)C2)C1 (single isomer, unassigned) [Example 61b, 1-(6-(4-(5-chloro-6-methyl-1H-indazol-4-yl)-3-(2-fluoro-4-((2-methoxyethyl)amino)phenyl)-5-methyl-1H-pyrazol-1-yl)-2-azaspiro[3.3]heptan-2-yl)prop-2-en-1-one]	> 5000 nM
C=CC(=O)N1CC2(CC(n3nc(-c4ccc(C(=O)N(C)CCOC)cc4)c(-c4c(Cl)c(C)cc5[nH]ncc45)c3C)C2)C1 (single isomer, unassigned) [Example 66b, 4-(1-(2-acryloyl-2-azaspiro[3.3]heptan-6-yl)-4-(5-chloro-6-methyl-1H-indazol-4-yl)-5-methyl-1H-pyrazol-3-yl)-N-(2-methoxyethyl)-N-methylbenzamide]	4300 nM
